target: T1, Human Recombinant Matriptase 2 (Homo sapiens, UniProt Q8IU80); assay: Matriptase 2 fluorescence based inhibition assay, Method B (50 mM TRIS pH 7.5, 150 mM NaCl, 0.01% gelatin); type: biochemical; conditions: 1 uM compound; Assay Used = B (Method B)
T1 construct: purchased Enzo Life Sciences (an in-house preparation was also used) ALX-201-752-1
T1 sequence (Q8IU80 1-811): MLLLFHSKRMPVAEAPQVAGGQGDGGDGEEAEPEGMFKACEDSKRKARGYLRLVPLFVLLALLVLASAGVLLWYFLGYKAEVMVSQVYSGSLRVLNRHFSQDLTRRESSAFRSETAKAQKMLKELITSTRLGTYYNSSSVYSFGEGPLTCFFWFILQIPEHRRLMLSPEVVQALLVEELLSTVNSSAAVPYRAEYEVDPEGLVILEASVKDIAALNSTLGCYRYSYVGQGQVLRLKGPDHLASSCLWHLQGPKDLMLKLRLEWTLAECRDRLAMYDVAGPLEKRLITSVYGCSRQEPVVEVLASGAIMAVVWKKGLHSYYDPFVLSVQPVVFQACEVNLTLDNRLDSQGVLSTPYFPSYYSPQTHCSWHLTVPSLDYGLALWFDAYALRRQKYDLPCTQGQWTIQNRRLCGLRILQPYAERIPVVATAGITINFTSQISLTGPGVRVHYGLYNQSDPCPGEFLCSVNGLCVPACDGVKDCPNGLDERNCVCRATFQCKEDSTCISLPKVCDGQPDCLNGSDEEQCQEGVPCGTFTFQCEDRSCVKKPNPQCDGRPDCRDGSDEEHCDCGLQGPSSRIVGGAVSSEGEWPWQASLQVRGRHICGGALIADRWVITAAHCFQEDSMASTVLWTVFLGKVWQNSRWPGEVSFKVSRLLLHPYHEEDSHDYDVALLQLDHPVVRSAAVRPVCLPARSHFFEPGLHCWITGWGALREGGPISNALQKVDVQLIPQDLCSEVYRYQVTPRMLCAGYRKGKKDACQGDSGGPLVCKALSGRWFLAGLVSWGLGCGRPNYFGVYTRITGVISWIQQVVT
How it was run: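 Fluorogenic substrate Boc-Gln-Ala-Arg-7-amido-4-methylcoumarin (100 μM) cleavage read at Ex 360/Em 480 nm 60 min after addition, following 30 min enzyme–compound preincubation at 25° C. Enzyme was 7 nM commercial or 15 nM in-house; DMSO 1%. IC50s fitted by non-linear sigmoidal regression.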

SMILES	Mar-2 % inhibition at 1 uM
N=C(N)c1ccc2cc(C(=O)N[C@H]3CC[C@H](N)CC3)n(Cc3ccc(C(N)=O)c4ccccc34)c2c1 [Compound I-642]	C (C represents 50%≤I≤75%)
N=C(N)c1ccc2cc(C(=O)N[C@H]3CC[C@H](N)CC3)n(Cc3ccccc3-c3ccccc3)c2c1 [Compound I-646]	A (A represents 0%≤I≤25%)
N#Cc1c(C(=O)N[C@H]2CC[C@H](N)CC2)n(Cc2cccc3ccccc23)c2cc(C(=N)N)ccc12 [Compound I-657]	A (A represents 0%≤I≤25%)
N=C(N)c1ccc2cc(NC(=O)[C@H]3CC[C@H](N)CC3)n(Cc3cccc4ccccc34)c2c1 [Compound I-671]	C (C represents 50%≤I≤75%)
N=C(N)c1ccc2cc(C(=O)N[C@H]3CC[C@H](N)CC3)n(Cc3ccc(C(=O)O)c4ccccc34)c2c1 [Compound I-673]	B (B represents 25%≤I≤50%)
N=C(N)c1ccc2cc(C(=O)N[C@H]3CC[C@H](N)CC3)n(Cc3cncc4ccccc34)c2c1 [Compound I-687]	C (C represents 50%≤I≤75%)

same assay, conditions: 1 uM compound; Assay Used = B (Method B); read-out: Mar-2 % inhibition at 1 uM

SMILES	inhibition at 1 µM [%]
Cn1c(C(=O)O)c(-c2ccc3ccccc3c2)c2cc(C(=N)N)ccc21 [Compound I-637]	0 to 25
Cc1c(C(=O)O)n(Cc2cccc3ccccc23)c2cc(C(=N)N)ccc12 [Compound I-638, 6-carbamimidoyl-3-methyl-1-(naphthalen-1-ylmethyl)-1H-indole-2-carboxylic Acid]	50 to 75
N=C(N)c1ccc2cc(C(=O)O)n(Cc3cc(Oc4ccc(N)cc4F)cc4ccccc34)c2c1 [Compound I-639]	50 to 75
Cn1c(C(=O)O)c(Cc2cccc3ccccc23)c2cc(/C(N)=N/O)ccc21 [Compound I-641]	0 to 25
N/C(=N/O)c1ccc2cc(C(=O)O)n(Cc3cc(Oc4ncccn4)cc4ccccc34)c2c1 [Compound I-643, (Z)-6-(N′-hydroxycarbamimidoyl)-1-((3-(pyrimidin-2-yloxy)naphthalen-1-yl)methyl)-1H-indole-2-carboxylic Acid]	0 to 25
N=C(N)c1ccc2cc(N3CCOCC3)n(Cc3cccc4ccccc34)c2c1 [Compound I-644, 2-morpholino-1-(naphthalen-1-ylmethyl)-1H-indole-6-carboximidamide]	25 to 50
N=C(N)c1ccc2cc(C(=O)NC3CCC(N)CC3)n(Cc3ccc(C(=N)N)c4ccccc34)c2c1 (centres unmarked) [Compound I-645]	25 to 50
Cc1ccc(S(=O)(=O)Oc2cc(Cn3c(C(=O)O)cc4ccc(C(=N)N)cc43)c3ccccc3c2)cc1 [Compound I-647]	75 to 100
N=C(N)c1ccc2cc(C(=O)O)n(Cc3cc(OC(F)F)cc4ccccc34)c2c1 [Compound I-648]	50 to 75
N=C(N)c1ccc2cc(C(=O)O)n(Cc3cc(Cc4ccccc4)cc4ccccc34)c2c1 [Compound I-649]	0 to 25
NC(=NO)c1ccc2cc(C(=O)O)n(Cc3cccc4ccccc34)c2n1 [Compound I-650]	0 to 25
N=C(N)c1ccc2c(c1)cc(C(=O)O)n2Cc1cccc2ccccc12 [Compound I-651]	0 to 25
N=C(N)c1ccc2cc(C(=O)N[C@H]3CC[C@H](N)CC3)n(Cc3c(Cl)c(Sc4ccccc4)cc4ccccc34)c2c1 [Compound I-652]	50 to 75
N=C(N)c1ccc2cc(C(=O)O)n(Cc3c(Cl)c(Sc4ccccc4)cc4ccccc34)c2c1 [Compound I-653]	0 to 25
N=C(N)c1ccc2cc(C(=O)O)n(-c3ccc4ccccc4c3)c2c1 [Compound I-654]	0 to 25
N=C(N)c1ccc2cc(C(=O)O)n(Cc3cc(Oc4ccsc4)cc4ccccc34)c2c1 [Compound I-655]	50 to 75
N=C(N)c1ccc2cc(C(=O)O)n(Cc3cc(Nc4ccccc4)cc4ccccc34)c2c1 [Compound I-656]	50 to 75
CCOC(=O)c1cc2ccc(C(N)=NO)cc2n1Cc1cc(S(=O)(=O)c2ccccc2)cc2ccccc12 [Compound I-658]	0 to 25
NC(=NO)c1ccc2cc(C(=O)O)n(Cc3cc(S(=O)(=O)c4ccccc4)cc4ccccc34)c2c1 [Compound I-659]	0 to 25
N/C(=N\O)c1ccc2c(c1)cc(C(=O)O)n2Cc1cccc2ccccc12 [Compound I-660]	0 to 25
N=C(N)c1ccc2cc(C(=O)O)n(Cc3cc(Oc4ccccc4Cl)cc4ccccc34)c2c1 [Compound I-661]	25 to 50
CCOC(=O)c1cc2ccc(C(=N)N)cc2n1Cc1cc(Oc2ccccc2)cc2ccccc12 [Compound I-662]	25 to 50
CCOC(=O)c1cc2ccc(C(N)=NO)cc2n1Cc1cc(Oc2ccccc2)cc2ccccc12 [Compound I-663]	0 to 25
CCn1c(C(=O)N[C@H]2CC[C@H](N)CC2)c(Cc2cccc3ccccc23)c2cc(C(=N)NN)ccc21 [Compound I-664]	0 to 25
NC(=NO)c1ccc2cc(C(=O)O)n(Cc3cc(Oc4ccccc4)cc4ccccc34)c2c1 [Compound I-665]	0 to 25

SMILES	inhibition at 1 µM [%]
N=C(N)c1ccc2cc(C(=O)NC3CCC(N)CC3)n(Cc3ccc(CN)c4ccccc34)c2c1 (centres unmarked) [Compound I-666]	50 to 75
N=C(N)c1ccc2cc(C(=O)O)n(Cc3c[nH]c4ccccc34)c2n1 [Compound I-667]	25 to 50
COc1ccc(Cn2c(C(=O)N[C@H]3CC[C@H](N)CC3)cc3ccc(C(=N)N)cc32)c2ccccc12 [Compound I-668]	75 to 100
CCOC(=O)c1cc2ccc(C(=N)N)cc2n1Cc1cc(S(=O)(=O)c2ccccc2)cc2ccccc12 [Compound I-669]	25 to 50
N=C(N)c1ccc2cc(C(=O)N[C@H]3CC[C@H](N)CC3)n(Cc3cc(Oc4ncccn4)cc4ccccc34)c2c1 [Compound I-670]	75 to 100
N=C(N)c1ccc2cc(C(=O)O)n(Cc3cccc4c(COCc5ccccc5)cccc34)c2c1 [Compound I-672]	75 to 100
CC(C)COC(=O)NC(=N)c1ccc2cc(C(=O)O)n(Cc3cccc4ccccc34)c2n1 [Compound I-674]	25 to 50
CCOC(=O)c1cc2ccc(/C(N)=N/O)cc2n1Cc1cccc2ccccc12 [Compound I-675, Ethyl (Z)-6-(N′-hydroxycarbamimidoyl)-1-(naphthalen-1-ylmethyl)-1H-indole-2-carboxylate]	0 to 25
CCOC(=O)c1cc2ccc(C(=N)NC(=O)OCC(C)C)nc2n1Cc1cccc2ccccc12 [Compound I-676]	0 to 25
N=C(N)c1ccc2cc(C(=O)O)n(-c3cc(CO)c4ccccc4c3)c2c1 [Compound I-677]	50 to 75
N=C(N)c1ccc2cc(C(=O)O)n(Cc3cc(S(=O)(=O)c4ccccc4)cc4ccccc34)c2c1 [Compound I-678]	50 to 75
N=C(N)c1ccc2cc(C(=O)O)n(Cc3ccc(Oc4ccccc4)c4ccccc34)c2n1 [Compound I-679]	25 to 50
N=C(N)c1ccc2cc(C(=O)O)n(Cc3cccc4ccc(Oc5ccccc5)cc34)c2c1 [Compound I-680]	25 to 50
N=C(N)c1ccc2cc(C(=O)N[C@H]3CC[C@H](N)CC3)n(-c3cc(CO)c4ccccc4c3)c2c1 [Compound I-681]	75 to 100
N=C(N)c1ccc2cc(C(=O)O)n(Cc3cc(OC4CCCCC4)cc4ccccc34)c2c1 [Compound I-682]	25 to 50
CC1CCCCN1CCCNC(=O)c1cc2ccc(C(=N)N)cc2n1Cc1cccc2ccccc12 (centres unmarked) [Compound I-683]	50 to 75
CO/N=C(\N)c1ccc2c(c1)c(Cc1cccc3ccccc13)c(C(=O)O)n2C [Compound I-684]	0 to 25
CCn1c(C(=O)O)c(Cc2cccc3ccccc23)c2cc(C(=N)N)ccc21 [Compound I-685]	50 to 75
COc1cccc(Oc2cc(Cn3c(C(=O)O)cc4ccc(C(=N)N)cc43)c3ccccc3c2)c1 [Compound I-686]	50 to 75
COc1ccc(Oc2cc(Cn3c(C(=O)O)cc4ccc(C(=N)N)cc43)c3ccccc3c2)cc1 [Compound I-688]	50 to 75
Cn1c(C(=O)O)c(Cc2cccc3ccccc23)c2cc(C(=N)N)ccc21 [Compound I-689]	75 to 100
N=C(N)c1cc2c(cn1)cc(C(=O)NC1CCC(N)CC1)n2Cc1cccc2ccccc12 (centres unmarked) [Compound I-690]	75 to 100
N#Cc1ccc(Cn2c(C(=O)N[C@H]3CC[C@H](N)CC3)cc3ccc(C(=N)N)cc32)c2ccccc12 [Compound I-691]	75 to 100
N=C(N)c1ccc2cc(C(=O)O)n(Cc3cc(N4CCOCC4=O)cc4ccccc34)c2c1 [Compound I-692]	0 to 25
N=C(N)c1ccc2cc(C(=O)O)n(Cc3cc(Oc4ncccn4)cc4ccccc34)c2c1 [Compound I-693]	75 to 100
